Experimental data taken from patent US8809280B2, “Therapeutic peptides” (Lytix Biopharma AS, priority 2009, dated 2014).
≈ marks a conversion by molar mass, not a printed value. Read-outs that look alike come from different tables or passages of the source. One block for each molecule: values may come before it.

Legend:
Assay type in all cases: cell-based
[1] = test system: Staphylococcus aureus (ATTC 25923); experiment: microbe, parasite or virus in culture
Procedure, shortened: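 Di-TFA salts tested in duplicate at 0.5–200 μg/ml against exponential-phase bacteria at 2×10^6 cfu/ml grown in 2% peptone water. Growth judged by well turbidity, with no-peptide and gentamicin controls.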

[2] = test system: methicillin resistant Staphylococcus epidermidis (ATCC 27626); experiment: microbe, parasite or virus in culture
Procedure, shortened: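 Exponentially grown bacteria (2% peptone water) at 2×10^6 cfu/ml exposed in duplicate to di-TFA salts at 0.5–200 μg/ml. Growth or no growth judged by well turbidity; no-peptide and gentamicin controls included.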

[3] = test system: Escherichia coli (ATTC 25922); experiment: microbe, parasite or virus in culture
Procedure, shortened: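 Broth dilution in 2% Bacto Peptone water, inoculum 2×10^6 cfu/ml of exponential-phase bacteria; compounds (di-TFA salts) tested in duplicate at 200 down to 0.5 μg/ml. Growth judged by well turbidity, with no-peptide negative and gentamicin positive controls.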

human red blood cells = experiment: cells
Procedure, shortened: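 Washed heparinized RBCs, diluted to 10% hematocrit then to 1% v/v final, incubated with compounds in PBS (1–1000 μg/mL) for 1 h at 37 °C with agitation. Hemoglobin release read at 405 nm against PBS (0%) and 0.1% Triton X-100 (100%); value reported is concentration giving 50% hemolysis.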

A20 = experiment: cells; conditions: for Anticancer potency (IC50) A20: Example 2; for Anticancer potency (IC50) A20 / IC50: highest concentration tested 500 μg/ml, * low solubility in the test media (Table 2); for IC50: Mus musculus, A20, Example 2, read-out: Anticancer potency (IC50) A20; for Anti-Cancer Selectivity MRC-5/A20: ratio of MRC-5 to A20 values; for Anti-Cancer Selectivity RBC/A20: ratio of RBC EC50 to A20 IC50
Procedure: Cancer Cell Lines A20 or MethA Anticancer assays: 500 μg/ml

MRC-5 = experiment: Toxicity assay MRC-5; conditions: highest concentration tested 500 μg/ml; for IC50: Homo sapiens, MRC5, Example 2
Procedure: Cells for Toxicity Studies Used MRC-5 and human RBC MRC-5 assay: 500 μg/ml

[4] = test system: methicillin resistant Staphylococcus aureus (ATCC 33591); experiment: microbe, parasite or virus in culture
Procedure, shortened: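 Di-TFA salts tested in duplicate at 200 down to 0.5 μg/ml against exponentially grown bacteria at 2×10^6 cfu/ml. Growth judged by well turbidity, with no-peptide and gentamicin controls.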

[5] = test system: Pseudomonas aeruginosa (ATCC 27853); experiment: microbe, parasite or virus in culture; conditions: for MIC: read-out: MIC P. aeruginosa
Procedure: Each compound was tested in duplicates at 200, 100, 50, 35, 15, 10, 5, 2.5, 1, 0.5 μg/ml. All tested compounds were di-trifluoroacetic acid salts.

[6] = Example 2, values separated by / are repeat tests
[7] = Staphylococcus aureus, Example 2, values separated by / are repeat tests, read-out: Antimicrobial potency (MIC) S. aureus
[8] = Staphylococcus epidermidis, ATCC 27626 / MRSE, Example 2, values separated by / are repeat tests, read-out: Antimicrobial potency (MIC) MRSE
[9] = Escherichia coli, Example 2, values separated by / are repeat tests, read-out: Antimicrobial potency (MIC) E. coli
[10] = Homo sapiens, Erythrocyte, Example 2, highest concentration tested 1000 μg/ml, * low solubility in the test media, read-out: Toxicity RBC (EC50)
[11] = Staphylococcus aureus, ATCC 33591 / MRSA, Example 2, values separated by / are repeat tests, read-out: Antimicrobial potency (MIC) MRSA
[12] = Staphylococcus aureus, ATCC25923, Example 4, ATCC 25923, di-trifluoroacetate salts, highest concentration tested 200 μg/ml, read-out: MIC S. aureus
[13] = Staphylococcus aureus, ATCC33591, Example 4, ATCC 33591, di-trifluoroacetate salts, highest concentration tested 200 μg/ml, read-out: MIC MTRSA
[14] = Staphylococcus epidermidis, ATCC 27626 / MRSE, Example 4, ATCC 27626, di-trifluoroacetate salts, highest concentration tested 200 μg/ml, read-out: MIC MRSE
[15] = Escherichia coli, ATCC25922, Example 4, ATCC 25922, di-trifluoroacetate salts, highest concentration tested 200 μg/ml, read-out: MIC E. coli
[16] = Pseudomonas aeruginosa, ATCC27853, Example 4, ATCC 27853, di-trifluoroacetate salts, highest concentration tested 200 μg/ml
[17] = Erythrocyte, Example 4, hemolytic activity, human red blood cells, highest concentration tested 1000 μg/ml, read-out: EC50 RBC

Structure (SMILES): NCCNC(=O)C(CN)(CCC1CCCCC1)CCC1CCCCC1 [Compound 3, N-(2-aminoethyl)-2-(aminomethyl)-4-cyclohexyl-2-(2-cyclohexylethyl)butanamide]
Antimicrobial potency (MIC) S. aureus [1, 6]: 10 µg/mL | MIC [1, 7]: 7.5 µg/mL | Antimicrobial potency (MIC) MRSE [2, 6]: 5 µg/mL | MIC [2, 8]: 2.5 µg/mL | MIC [3, 9]: 15 µg/mL | Antimicrobial potency (MIC) E. coli [3, 6]: 10 µg/mL | EC50 (human red blood cells; [10]): 62 µg/mL | Anticancer potency (IC50) A20 (A20): 1.7 µg/mL | IC50 (A20): < 3.35 µg/mL | Anti-Cancer Selectivity MRC-5/A20 (A20): (<5.9) | Anti-Cancer Selectivity RBC/A20 (A20): 36.5 | IC50 (MRC-5): < 10 µg/mL

Structure (SMILES): NCCNC(=O)C(CN)(Cc1ccccc1)Cc1ccccc1 [Compound 4]
MIC [1, 7]: > 200 µg/mL | MIC [4, 11]: > 200 µg/mL | MIC [2, 8]: > 200 µg/mL | MIC [3, 9]: > 200 µg/mL | EC50 (human red blood cells; [10]): > 1000 µg/mL | IC50 (A20): 68.6 µg/mL (≈ 220 µM) | Anti-Cancer Selectivity MRC-5/A20 (A20): 3.8 | IC50 (MRC-5): 261 µg/mL (≈ 838 µM)

Structure (SMILES): CN(C)CCN1CCN(C(=O)C(CN)(Cc2ccc(C(C)(C)C)cc2)Cc2ccc(C(C)(C)C)cc2)CC1 [Compound 4d]
MBC S. aureus ([1]; ATTC 25923): >307 µM | Therapeutic index S. aureus ([1]; ATTC 25923): 26 | MIC ([1]; ATTC 25923, read-out: MIC S. aureus): 13 µM | MIC S. aureus ([1]; Example 1, ATTC 25923, di TFA salts, highest concentration tested 200 μg/ml): — (The notation “—”denotes no detectable activity (MIC or EC50) within the concentration range tested.) | MBC MRSA ([4]; ATCC 33591): >307 µM | Therapeutic index MRSA ([4]; ATCC 33591): 26 | MIC ([4]; ATCC 33591, read-out: MIC MTRSA): 13 µM | MIC MRSA ([4]; Example 1, ATCC 33591, di TFA salts, highest concentration tested 200 μg/ml): — (The notation “—”denotes no detectable activity (MIC or EC50) within the concentration range tested.) | MBC MRSE ([2]; ATCC 27626): >307 µM | Therapeutic index MRSE ([2]; ATCC 27626): 26 | MIC ([2]; ATCC 27626, read-out: MIC MRSE): 13 µM | MIC MRSE ([2]; Example 1, ATCC 27626, di TFA salts, highest concentration tested 200 μg/ml): — (The notation “—”denotes no detectable activity (MIC or EC50) within the concentration range tested.) | MBC E. coli ([3]; ATTC 25922): >307 µM | Therapeutic index E. coli ([3]; ATTC 25922): 26 | MIC ([3]; ATTC 25922, read-out: MIC E. coli): 13 µM | MIC E. coli ([3]; Example 1, ATTC 25922, di TFA salts, highest concentration tested 200 μg/ml): — (The notation “—”denotes no detectable activity (MIC or EC50) within the concentration range tested.) | Therapeutic index P. aeruginosa ([5]; ATCC 27853): 1.3 | MIC ([5]; ATCC 27853): 255 µM (≈ 133 µg/mL) | EC50 (human red blood cells; red cells of human): 337 µM

Structure (SMILES): NCCNC(=O)C(CN)(CCCc1ccccc1)CCCc1ccccc1 [Compound 6, N-(2-aminoethyl)-2-(aminomethyl)-5-phenyl-2-(3-phenylpropyl)pentanamide]
Antimicrobial potency (MIC) S. aureus [1, 6]: 50 µg/mL | MIC [1, 7]: 35 µg/mL | MIC [4, 11]: 35 µg/mL | MIC [2, 8]: 15 µg/mL | MIC [3, 9]: 200 µg/mL | EC50 (human red blood cells; [10]): 820 µg/mL | IC50 (A20): 8.3 µg/mL (≈ 22.6 µM) | Anti-Cancer Selectivity MRC-5/A20 (A20): 4.2 | Anti-Cancer Selectivity RBC/A20 (A20): 98.8 | IC50 (MRC-5): 35 µg/mL (≈ 95.2 µM)

Structure (SMILES): NCCNC(=O)C(CN)(Cc1ccc(C(F)(F)F)cc1)Cc1ccc(C(F)(F)F)cc1 [Compound 9, 3-amino-N-(2-aminoethyl)-2,2-bis(4-(trifluoromethyl)benzyl)propanamide]
MIC [1, 7]: 10 µg/mL | MIC [4, 11]: 5 µg/mL | MIC [2, 8]: 10 µg/mL | MIC [3, 9]: 35 µg/mL | EC50 (human red blood cells; [10]): 287 µg/mL | Anti-Cancer Selectivity MRC-5/A20 (A20): 10-12 | Anti-Cancer Selectivity RBC/A20 (A20): 287 | Toxicity MRC-5 (MRC-5; Example 2): 12 µg/mL | IC50 (MRC-5): < 10 µg/mL

Structure (SMILES): CC(C)c1ccc(CC(CN)(Cc2ccc(C(C)C)cc2)C(=O)NCCN)cc1 [Compound 10, 3-amino-N-(2-aminoethyl)-2,2-bis(4-isopropylbenzyl)propanamide]
Antimicrobial potency (MIC) S. aureus [1, 6]: 10 µg/mL | MIC [1, 7]: 5 µg/mL | Antimicrobial potency (MIC) MRSA [4, 6]: 10 µg/mL | MIC [4, 11]: 5 µg/mL | MIC [2, 8]: 5 µg/mL | EC50 (human red blood cells; [10]): 47 µg/mL | Anti-Cancer Selectivity MRC-5/A20 (A20): (<4.8) | Anti-Cancer Selectivity RBC/A20 (A20): 33.6 | IC50 (MRC-5): < 6.67 µg/mL

Structure (SMILES): Cc1cc(C)cc(CC(CN)(Cc2cc(C)cc(C)c2)C(=O)NCCN)c1 [Compound 12, 3-amino-N-(2-aminoethyl)-2,2-bis(3,5-dimethylbenzyl)propanamide]
MIC [1, 7]: 35 µg/mL | MIC [4, 11]: 35 µg/mL | Antimicrobial potency (MIC) MRSE [2, 6]: 10 µg/mL | MIC [2, 8]: 5 µg/mL | MIC [3, 9]: 50 µg/mL | Antimicrobial potency (MIC) E. coli [3, 6]: 100 µg/mL | Anticancer potency (IC50) A20 (A20): < 10 µg/mL | IC50 (A20): < 5 µg/mL | Anti-Cancer Selectivity MRC-5/A20 (A20): (>2 ) | IC50 (MRC-5): 10 µg/mL (≈ 27.2 µM)

The next lines start with results.

MIC [1, 7]: 2.5 µg/mL | MIC [4, 11]: 2.5 µg/mL | MIC [2, 8]: 2.5 µg/mL | MIC [3, 9]: 5 µg/mL
Structure (SMILES): CC(C)(C)c1ccc(CC(CN)(Cc2ccc(C(C)(C)C)cc2)C(=O)NCCN)cc1 [Compound 11, 3-amino-N-(2-aminoethyl)-2,2-bis(4-tert-butylbenzyl)propanamide]
EC50 (human red blood cells; [10]): 12 µg/mL | Anti-Cancer Selectivity MRC-5/A20 (A20): 3.6 | Anti-Cancer Selectivity RBC/A20 (A20): 10.9 | IC50 (MRC-5): 4 µg/mL (≈ 9.44 µM)

MIC [1, 12]: 15 µM | MIC [4, 13]: 15 µM | MIC [2, 14]: 7.2 µM | MIC [3, 15]: 15 µM | MIC [5, 16]: 289 µM
Structure (SMILES): CN1CCN(C(=O)C(CN)(Cc2ccc(C(C)(C)C)cc2)Cc2ccc(C(C)(C)C)cc2)CC1 [Entry 5d]
Therapeutic index S. aureus ([1]; EC50 RBC divided by MIC): 23 | Therapeutic index MRSA ([4]; EC50 RBC divided by MIC): 23 | Therapeutic index MRSE ([2]; EC50 RBC divided by MIC): 48 | Therapeutic index E. coli ([3]; EC50 RBC divided by MIC): 23 | Therapeutic index P. aeruginosa ([5]; EC50 RBC divided by MIC): 1.2 | EC50 (human red blood cells; [17]): 348 µM

MIC [1, 12]: 7.4 µM | MIC [4, 13]: 7.4 µM | MIC [2, 14]: 3.7 µM | MIC [3, 15]: 7.4 µM | MIC [5, 16]: 74 µM
Structure (SMILES): CN(C)CCNC(=O)C(CN)(Cc1ccc(C(C)(C)C)cc1)Cc1ccc(C(C)(C)C)cc1 [Entry 6d]
Therapeutic index S. aureus ([1]; EC50 RBC divided by MIC): 37 | Therapeutic index MRSA ([4]; EC50 RBC divided by MIC): 37 | Therapeutic index MRSE ([2]; EC50 RBC divided by MIC): 74 | Therapeutic index E. coli ([3]; EC50 RBC divided by MIC): 37 | Therapeutic index P. aeruginosa ([5]; EC50 RBC divided by MIC): 3.7 | EC50 (human red blood cells; [17]): 274 µM

MIC [1, 12]: 3.8 µM | MIC [4, 13]: 3.8 µM | MIC [2, 14]: 3.8 µM | MIC [3, 15]: 7.7 µM | MIC [5, 16]: 23 µM
Structure (SMILES): CC(C)(C)c1ccc(CC(CN)(Cc2ccc(C(C)(C)C)cc2)C(=O)NCCN)cc1 [Entry 7d]
Therapeutic index S. aureus ([1]; EC50 RBC divided by MIC): 4.7 | Therapeutic index MRSA ([4]; EC50 RBC divided by MIC): 4.7 | Therapeutic index MRSE ([2]; EC50 RBC divided by MIC): 4.7 | Therapeutic index E. coli ([3]; EC50 RBC divided by MIC): 2.3 | Therapeutic index P. aeruginosa ([5]; EC50 RBC divided by MIC): 0.8 | EC50 (human red blood cells; [17]): 18 µM
